21 compounds from patent US20070093524A1, “5-Lipoxygenase modulators” (Wyeth, priority 2005, published 2007) can be followed below.

This assay has as its system 5-LO mRNA. The experiment in a line: Downregulation of 5-LO gene expression (5-LO mRNA by real-time RT-PCR) in acetylated-LDL-stimulated macrophage cell lines. It is filed as cell-based, human and mouse. The following applies: macrophage cell line (THP-1 or J774, not specified); for inhibition at 0.1 µM: 0.1 uM compound; for inhibition at 0.3 µM: 0.3 uM compound; for inhibition at 1 µM: 1.0 uM compound; for inhibition at 3 µM: 3.0 uM compound. The protocol: A panel of LXR or PPAR modulator compounds was tested to determine whether they could downregulate 5-LO gene expression. The compounds were individually tested to determine whether they could downregulate 5-LO gene expression in human and mouse macrophage cell lines.
Preparation of Acetylated LDL: LDL was dialyzed with 500 mL phosphate buffered saline (PBS) three times. 2.5 mL of dialyzed LDL was mixed with 2.5 mL of saturated sodium acetate with continuous stirring in an ice-water bath. Acetic anhydride was added in 7 times 7.5 μL over a period of 1 hour with continuous stirring. Then, the mixture was stirred for an additional 1 hour. The solution was dialyzed against 500 mL PBS containing 0.3 mM EDTA three times. The protein concentration is determined using Bio-Rad DC protein assay kit.
Cell Culture and Compound Treatment: Human THP-1 cells were maintained in RPMI 1640 medium containing 10% Fetal Bovine Serum (FBS), 25 mM Hepes buffer, […] Genamicin, 1 mM Sodium pyruvate, and 50 μM β-mercaptoethanol. THP-1 cells were differentiated with 75 ng/mL phorbal 12,13-dibutyrate (PDBu) three days prior to assay to induce differentiation of the cells into adherent macrophages. Cells were seeded in 12 well plates in 1 mL of complete media. Each well contained 400,000 cells. The cells were stimulated with RPMI 1640 medium (1% FBS) containing 100 μg/mL acetylated-LDL in presence of phorbol ester for 48 hours, including several wells without acetylated-LDL treatment as a control. The medium was then changed to RPMI 1640 medium without FBS, plus the test compounds with phorbol ester for 48 hours. Control cells were not incubated with test compounds. The cells were incubated at 37° C. in a humidified CO2 incubator. The cells were then ready for RNA extraction.
Murine J774 cells were maintained in DMEM (high glucose) containing 10% FBS, 100 units/mL penicillin, and 100 μg/mL streptomycin. Six hours prior to assay, J774 cells were seeded into 96-well plates in 150 μL complete media. Each well contains 75,000 cells. The cells were stimulated with DMEM-high glucose (1% FBS) containing 100 μg/mL acetylated-LDL for 24 to 48 hours, including several wells without acetylated-LDL treatment as a control. The media was then changed to DMEM-high glucose (without FBS) plus the test compounds for 24 to 48 hours. Compounds were dosed in DMSO vehicle and control cells were treated with vehicle alone. The cells were incubated at 37° C. in a humidified CO2 incubator. The cells were then ready for RNA isolation.
RNA analysis: Total RNA was isolated from the THP-1 cells by using a QIAGEN RNeasy Mini Kit. Real-time quantitative RT-PCR assays were performed using an Applied Biosystems 7900 sequence detector. Each amplification mixture (50 μL) contained 50-100 ng of total RNA, 200 nM forward primer, 200 nM reverse primer, and 200 nM dual-labeled fluorogenic probe. The RT-PCR reagent is from QIAGEN (QuantiTect Probe RT-PCR kit). The RT-PCR thermocycling parameters were 48° C. for 30 minutes, 95° C. for 10 minutes, and 40 cycles at 95° C. for 15 seconds and 55° C. for 1 minute. The samples, no-RT controls, and serially diluted RNA standards were analyzed in parallel. The 5-LO target gene was analyzed and normalized for human glyceraldehyde-3-phosphate dehydrogenase (GAPDH) expression using probe and primers from predeveloped assays for GAPDH (Applied Biosystems). Quantitative analysis was performed using the threshold procedure, and relative amounts were calculated from the standard curve.
Total RNA from the J774 cells was isolated by using the ABI 6100 RNA isolation system for 96-well plates (the THP-1 cells can also be cultured and tested in 96-well plates). Real-time quantitative RT-PCR assays were performed using an Applied Biosystems 7900 sequence detector. Each amplification mixture (50 μL) contained 50-100 ng of total RNA, 200 nM forward primer, 200 nM reverse primer, and 250 nM dual-labeled fluorogenic probe.
(In general: Quantitative PCR measures a nucleic acid by following its amplification.)

One may read the inhibition as the share of the control response that was lost under treatment. A higher inhibition goes with strong suppression. For `O=C(O)Cc1ccc(CNc2cccc(-c3c(Cc4ccccc4)cnc4c(C(F)(F)F)cccc34)c2)cc1` [Compound I-1, (4-{[3-(3-Benzyl-8-trifluoromethyl-quinolin-4-yl)-phenylamino]-methyl}-phenyl)-acetic acid], testing at 0.1 µM gave an inhibition of 91%, testing at 0.3 µM gave an inhibition of 82%, testing at 1 µM gave an inhibition of 88% and the inhibition at 3 µM worked out at 83%.
Take `CCOC(=O)Cc1cccc(CNc2cccc(-c3c(C(=O)c4ccccc4)cnc4c(C(F)(F)F)cccc34)c2)c1` [Compound I-13, (3-{[3-(3-Benzoyl-8-trifluoromethyl-quinolin-4-yl)-phenylamino]-methyl}-phenyl)-acetic acid ethyl ester]: testing at 0.3 µM gave an inhibition of 40% and the inhibition at 3 µM worked out at 30%.
The like results for `COc1cc(CNc2cccc(-c3c(Cc4ccccc4)cnc4c(C(F)(F)F)cccc34)c2)ccc1O` [Compound I-17, 4-{[3-(3-Benzyl-8-trifluoromethyl-quinolin-4-yl)-phenylamino]-methyl}-2-methoxy-phenol] were, in that order, 41% and 53%.
With `Cc1cnc2c(C(F)(F)F)cccc2c1-c1cccc(OCc2ccc([C@@H](C)C(=O)O)cc2)c1` [Compound I-10, (2R)-2-{4-[3-(3-Methyl-8-trifluoromethyl-quinolin-4-yl)-phenoxymethyl]-phenyl}-propionic acid], testing at 0.1 µM gave an inhibition of 86% and testing at 1 µM gave an inhibition of 83%.
The like results for `O=C(O)Cc1ccc(C#Cc2cccc(-c3c(Cc4ccccc4)cnc4c(C(F)(F)F)cccc34)c2)cc1` [Compound I-9, {4-[3-(3-Benzyl-8-trifluoromethyl-quinolin-4-yl)-phenylethynyl]-phenyl}-acetic acid] were, in that order, 22% and 45%.
Consider `COC(=O)Cc1ccc(CNc2cccc(-c3c(C)cnc4c(C(F)(F)F)cccc34)c2)cc1` [Compound I-20, (4-{[3-(3-Methyl-8-trifluoromethyl-quinolin-4-yl)-phenylamino]-methyl}-phenyl)-acetic acid methyl ester], for which the inhibition at 0.3 µM was 78% and the inhibition at 3 µM turned out to be 78%.
Turning to `COC(=O)C(C)c1ccc(CNc2cccc(-c3c(C)cnc4c(C(F)(F)F)cccc34)c2)cc1` (centres unmarked) [Compound I-21, 2-(4-{[3-(3-Methyl-8-trifluoromethyl-quinolin-4-yl)-phenylamino]-methyl}-phenyl)-propionic acid methyl ester], at 0.3 µM the inhibition was 78% and the inhibition at 3 µM turned out to be 63%.
For `Cc1cnc2c(C(F)(F)F)cccc2c1-c1cccc(OCc2ccc(CC(=O)O)cc2)c1` [Compound I-4, {4-[3-(3-Methyl-8-trifluoromethyl-quinolin-4-yl)-phenoxymethyl]-phenyl}-acetic acid], testing at 0.1 µM gave an inhibition of 79% and testing at 1 µM gave an inhibition of 90%.
As for `NNC(=O)Cc1ccc(CNc2cccc(-c3c(Cc4ccccc4)cnc4c(C(F)(F)F)cccc34)c2)cc1` [Compound I-12, (4-{[3-(3-Benzyl-8-trifluoromethyl-quinolin-4-yl)-phenylamino]-methyl}-phenyl)-acetic acid hydrazide], the inhibition at 0.3 µM turned out to be 71% and the inhibition at 3 µM was 76%.
For `O=C(O)Cc1ccc(COc2cccc(-c3c(-c4ccccc4)cnc4c(Cl)cccc34)c2)cc1` [Compound I-5, {4-[3-(8-Chloro-3-phenyl-quinolin-4-yl)-phenoxymethyl]-phenyl}-acetic acid], 0.1 µM produced 87% inhibition and testing at 1 µM gave an inhibition of 91%.
The like results for `O=C(O)Cc1ccc(COc2cccc(-c3c(Cc4ccccc4)cnc4c(C(F)(F)F)cccc34)c2)cc1` [Compound I-2, {4-[3-(3-Benzyl-8-trifluoromethyl-quinolin-4-yl)-phenoxymethyl]-phenyl}-acetic acid] were, in that order, 84% and 92%.
Compound `COC(=O)COc1ccc(COc2cccc(-c3c(-c4ccccc4)cnc4c(C(F)(F)F)cccc34)c2)cc1` [Compound I-23, {4-[3-(3-Phenyl-8-trifluoromethyl-quinolin-4-yl)-phenoxymethyl]-phenoxy}-acetic acid methyl ester] gave an inhibition at 0.3 µM of 76% and an inhibition at 3 µM of 92%.
`CCOC(=O)Cc1ccc(COc2cccc(-c3c(-c4ccccc4)cnc4c(C(F)(F)F)cccc34)c2)cc1` [Compound I-14, {4-[3-(3-Phenyl-8-trifluoromethyl-quinolin-4-yl)-phenoxymethyl]-phenyl}-acetic acid ethyl ester] yielded an inhibition at 0.3 µM of 81% and an inhibition at 3 µM of 84%.
For `COC(=O)Cc1ccc(CNc2cccc(-c3c(C(=O)c4ccccc4)cnc4c(C(F)(F)F)cccc34)c2)cc1` [Compound I-11, (4-{[3-(3-Benzoyl-8-trifluoromethyl-quinolin-4-yl)-phenylamino]-methyl}-phenyl)-acetic acid methyl ester], the inhibition at 0.3 µM is 74% and 3 µM produced 71% inhibition.
The like results for `COC(=O)C(C)(C)c1ccc(CNc2cccc(-c3c(C)cnc4c(C(F)(F)F)cccc34)c2)cc1` [Compound I-22, 2-Methyl-2-(4-{[3-(3-methyl-8-trifluoromethyl-quinolin-4-yl)-phenylamino]-methyl}-phenyl)-propionic acid methyl ester] were, in that order, 67% and 55%.
`CC(C)(C(=O)O)c1ccc(COc2cccc(-c3c(-c4ccccc4)cnc4c(Cl)cccc34)c2)cc1` [Compound I-8, 2-{4-[3-(8-Chloro-3-phenyl-quinolin-4-yl)-phenoxymethyl]-phenyl}-2-methyl-propionic acid] returned an inhibition at 0.1 µM of 89% and an inhibition at 1 µM of 93%.
With `Oc1cccc(CNc2cccc(-c3c(Cc4ccccc4)cnc4c(C(F)(F)F)cccc34)c2)c1O` [Compound I-18, 3-{[3-(3-Benzyl-8-trifluoromethyl-quinolin-4-yl)-phenylamino]-methyl}-benzene-1,2-diol], 0.3 µM produced 63% inhibition and testing at 3 µM gave an inhibition of 58%.
Take `CC(C)(C(=O)O)c1ccc(COc2cccc(-c3c(Cc4ccccc4)cnc4c(C(F)(F)F)cccc34)c2)cc1` [Compound I-7, 2-{4-[3-(3-Benzyl-8-trifluoromethyl-quinolin-4-yl)-phenoxymethyl]-phenyl}-2-methyl-propionic acid]: the inhibition at 0.1 µM was 87% and 1 µM produced 88% inhibition.
As for `CCOc1cc(CNc2cccc(-c3c(Cc4ccccc4)cnc4c(C(F)(F)F)cccc34)c2)ccc1O` [Compound I-19, 4-{[3-(3-Benzyl-8-trifluoromethyl-quinolin-4-yl)-phenylamino]-methyl}-2-ethoxy-phenol], the inhibition at 0.3 µM is 22% and the inhibition at 3 µM turned out to be 60%.
As to `CCOC(=O)Cc1ccc(COc2cccc(-c3c(Cc4ccccc4)cnc4c(C(F)(F)F)cccc34)c2)cc1` [Compound I-15, {4-[3-(3-Benzyl-8-trifluoromethyl-quinolin-4-yl)-phenoxymethyl]-phenyl}-acetic acid ethyl ester], the inhibition at 0.3 µM came out at 79% and testing at 3 µM gave an inhibition of 76%.
Compound `Cc1cnc2c(Cl)cccc2c1-c1cccc(OCc2ccc(CC(=O)O)cc2)c1` [Compound I-6, {4-[3-(8-Chloro-3-methyl-quinolin-4-yl)-phenoxymethyl]-phenyl}-acetic acid] came in with an inhibition at 0.1 µM of 62% and an inhibition at 1 µM of 81%.
